Results taken from patent US9676829B2, “Antibacterial polypeptides and use thereof” (Oslo Universitetssykehus HF, priority 2009, dated 2017).

How the values were obtained:
Type in all cases: cell-based, Escherichia coli
E. coli cells = experiment: Membrane depolarization, DiBAC4(3) uptake by flow cytometry after IPTG induction; conditions: 5 and 20 minutes after 1 mM IPTG
Experimental: Cells were grown to OD600≅0.4 in LB and then induced with IPTG to a final concentration of 1 mM. At 0, 5 and 20 minutes culture samples were diluted 1:10 in filtered AB minimal medium (Clark and MaalØe, 1967) +10 μg ml-1 DiBAC4(3) (Sigma-Aldrich). After 20 minutes incubation in the dark at room temperature, cells were analysed in a Flowcytometry LSRII (Becton Dickinson) equipped with an argon ion laser and a krypton laser (both Spectra Physics). DiBAC4(3) was detected in channel 580 using 488 nm laser. Parameters were collected as logarithmic signals. The two populations were easily separated in each staining experiment. The data obtained was analyzed by winMDI software.
To examine whether DinQ affects membrane polarization, the inventors tested the ability of E. coli cells with dinQ containing plasmids to take up the dye DiBAC4(3) [bis-(1,3-dibarbituric acid)-trimethine oxanol]. The dye enters cells upon membrane depolarization leading to increased fluorescence. Cells were taken 5 and 20 minutes after induction of DinQ expression with IPTG, incubated with DiBAC4(3) for 20 min and analyzed by flow cytometry (FIG. 9).

E. coli ER2566 = experiment: UV radiation survival spot assay of dinQ variants; conditions: UV irradiation of 24 J/m2, compared with intact dinQ (pBK444)
Excerpt: (§1) The spots in FIG. 22 represent E. coli ER2566 dilutions in the range of 100-10-5 (left to right). UV irradiation of 24 J/m2 was used to induce dinQ toxicity (right picture), and was compared to the unirradiated control assay (left picture). Control cells carry the vector plasmid (pKK232-8), and cells carrying the plasmid encoding intact dinQ (pBK444), were used as reference.
as §1, with “spots” for “spots in”, “23” for “22”, “10^0-10^−5” for “100-10-5”, “reference (see FIG. 23).” for “reference.”

wild type E. coli = experiment: IPTG sensitivity spot assay, DinQ ORFs over-expressed from pET28b(+)
Experimental: A. IPTG sensitivity in strains plated on IPTG. An aliquot or serially diluted (10-1-10-5 cells ml-1) log-phase cultures of wild type E. coli with empty expression vector pET28b(+) or vector constructs with alternative DinQ ORFs were spotted onto LB plates containing no IPTG (left panel) or 0.6 mM IPTG (right panel). The […] indicates a toxic effect with DinQ ORF 2-5 when the translation is forced by IPTG induction.
Expression plasmids pET28b-ORF1, pET28b-ORF2, pET28b-ORF3, pET28b-ORF4 and pET28b-ORF5 contains the DinQ ORF1, ORF2, ORF3, ORF4 and ORFS open reading frames inserted in the NcoI-BamHI restriction sites of the pET28b(+) vector (Novagen).
The mechanism underlying the UV sensitive phenotype of DinQ in a multicopy situation or under upregulation in an agrB mutant is unknown. The dinQ gene contain two putative open reading frames in which one of the reading frames encode three putative start codons (ii-iv, see FIG. 1C). […] To examine if any of the open reading frames mediate the UV sensitivity each reading frame were cloned into the expression vector pET28b(+) and expressed under control of IPTG (FIG. 4A). […] Next, DinQ ORF […] expression was titrated with increasing concentrations of IPTG (FIG. 4C) showing that ORF IV is highly toxic to the cells at very low doses of IPTG induction. […]

agrB mutant BK4043 = experiment: Intracellular ATP concentration, luciferase-based assay; conditions: agrB mutant with up-regulated DinQ peptide vs wild type AB1157
Experimental: Aliquots of cells were harvested before and 20 minutes after induction with IPTG to a final concentration of 1 mM and washed once in 50 mM Tris-Acetate pH 7.75. ATP was extracted from washed cells by 1% (TCA) trichloraceticacid in 50 mM Tris-Acetate pH 7.75 for 10 minutes. Tris-acetate buffer (1 ml) was added 1:10 to obtain optimal pH of 7.75 before mixing with rL/L reagent (ENLITEN ATP assay, Promega) at room temperature. The amount of ATP extracted (RLU value) was measured with 20/20 Luminometer (Turner Designs) and related to the OD600 for each sample.
The effect of DinQ peptide on the intracellular ATP concentration was measured using a quantitative luciferase-based assay (see materials and methods for details). […] Extracts from uninduced and SOS-induced agrB cells and wild-type cells, AB1157, were analysed 20 minutes after exposure by UV irradiation (sublethal doses).

E. coli [1] = experiment: Microscopy of E. coli overexpressing dinQ ORF5 upon IPTG induction; conditions: 4 h after IPTG 1 mM
Experimental: E. coli capable of overexpressing dinQ ORF5 were plated (LB agar 2%, kan, tet, amp) and incubated (O/N, 37° C.). A single colony was picked and grown (37° C., 16 h, 200 rpm) in liquid media (LB, kan, tet, amp). The culture was then adjusted to OD600=0.03 in fresh media (LB, kan, tet, amp) and allowed to grow (37° C., 16 h, 200 rpm) back to OD600=0.5 before induction with IPTG (1 mM). After incubation (4 h, 37° C., 200 rpm) an aliquot (200 μl) of the E. coli suspension was removed and fixed in MeOH (1 ml, −20° C.). After centrifugation (2000 rpm, 4° C., 5 min) the cells were aspirated and re-suspend in NaCl (0.9% in H2O). The samples were then spotted onto slides and allowed to dry (42° C.). The slides were then washed 3×H2O and allowed to air dry (RT) before microscopy (see FIG. 20).

E. coli [2] = experiment: Small colony variant count after IPTG induction of dinQ ORF5; conditions: IPTG 1 mM
Experimental: E. coli capable of overexpressing dinQ ORFS were incubated (O/N, 37° C., 200 rpm) before subculturing to OD600=0.01 (LB, kan, tet, amp). After incubation (37° C., 200 rpm) to OD600=0.5 expression of the toxin was either induced with IPTG (1 mM) or not. At time points after the addition the bacteria were serially diluted (×10) and plated (LB, 2% agar). After incubation (16 h, 37° C.) the plates were counted. Colony size was estimated and those 10× smaller than a typical colony were counted as a small colony variant SCV (see FIG. 21).

**Q.** “DinQ ORF2: amino acid sequence of the dinQ II polypeptide (ORF-II), 49 aa (MRRDRQWMSKRMHSHSIAWRKRVIDKAIIVLGALIALLELIRFLLQLLN; listed as Escherichia coli)” was tested. Which “effect on membrane integrity / depolarization (DiBAC4(3) uptake)” value (E. coli cells) did it give?
**A.** rapid and dramatic effects on the membrane integrity

**Q.** “MIDKAIIVLGAIVALLELIRFLLQLLN [L12I and I13V]” was tested. Which “toxicity of the dinQ peptide upon UV induction” value (E. coli ER2566) did it give?
**A.** maintain the toxicity

**Q.** With “MIDKAIIVLGALIALLELIRFLIQLLN (L23I variant of dinQ ORF V peptide)” as the substance, how does the “toxicity of the dinQ peptide upon UV induction” value (E. coli ER2566) read?
**A.** maintain the toxicity

**Q.** “MIDKAIIVLGALIALLELIRFLLQLLN (listed as Escherichia coli) [ORF5, DinQ ORF-V peptide with N-terminal Met, form translated from GUG start codon, 27 aa]” was tested. Which “toxic/growth inhibitory effect on IPTG plates” value (wild type E. coli; pET28b(+) constructs, IPTG induction, absence of UV) did it give?
**A.** strong toxicity

**Q.** And the “effect on membrane integrity / depolarization (DiBAC4(3) uptake)” value (E. coli cells)?
**A.** rapid and dramatic effects on the membrane integrity

**Q.** What about the “effect on membrane integrity / depolarization (DiBAC4(3) uptake)” value (E. coli cells; listed as DinQ ORF5) of the same substance?
**A.** most pronounced

**Q.** What about the “effect on intracellular ATP” value (agrB mutant BK4043) of the same substance?
**A.** impairs the energy supply in the form of ATP

**Q.** What about the “effect on membrane integrity (ghost cells) by microscopy” value (E. coli [1]) of the same substance?
**A.** damages membrane integrity

**Q.** What about the “colony phenotype after induction” value (E. coli [2]) of the same substance?
**A.** appearance of small colony variants (SCV)

**Q.** Which “toxicity of the dinQ peptide upon UV induction” value (E. coli ER2566) does the source give for “MIDKAIIVLKALIALLELIRFLLQLLN (G10K variant of dinQ ORF V peptide)” here?
**A.** maintain the toxicity

**Q.** How did the “toxicity of the dinQ peptide upon UV induction” value (E. coli ER2566) turn out when “MIDKAIVVLGALIALLELIRFLLQLLN (I7V variant of dinQ ORF V peptide)” was run?
**A.** maintain the toxicity

**Q.** For “ORF3: amino acid sequence of the dinQ III polypeptide (ORF-III), 42 aa (MSKRMHSHSIAWRKRVIDKAIIVLGALIALLELIRFLLQLLN; listed as Escherichia coli)”, which “effect on membrane integrity / depolarization (DiBAC4(3) uptake)” value (E. coli cells) is on record?
**A.** rapid and dramatic effects on the membrane integrity

**Q.** What does the source list for “ORF4: amino acid sequence of the dinQ IV polypeptide (ORF-IV), 38 aa (MHSHSIAWRKRVIDKAIIVLGALIALLELIRFLLQLLN; listed as Escherichia coli)”?
**A.** toxicity on titration with increasing concentrations of IPTG (wild type E. coli; very low doses of IPTG induction): highly toxic; effect on membrane integrity / depolarization (DiBAC4(3) uptake) (E. coli cells): rapid and dramatic effects on the membrane integrity
